Assay results from ChEMBL document CHEMBL4630901 (2021).
Blank lines part the entries; values can stand above or below the compound they belong to.

Assays:
[1] = molecular target: Alpha-2A adrenergic receptor (Homo sapiens, UniProt P08913); assay: GPCRScan assay: inhibition of Alpha2A; design: radioligand conc. used [nm] 1.0 – 3.0, parental cells stable MDCK
[2] = molecular target: Adenosine Transporter (Cavia porcellus) (UniProt H0V4R7+H0UUG1+H0V3Z5); assay: Inhibition of Transporter, Adenosine at compound concentration of 10.0 uM in the Eurofins-Panlabs radioligand binding assay (Eurofins_assay_202000); assay type: protein assay; design: ligand concentration 0.5 nM, non-specific ligand with concentration 5 uM Nitrobenzylthioinosine, incubation time 30 min, incubation temperature 25 C; conditions: Compound concentration 10.0 uM
[3] = molecular target: T1, Prostaglandin E2 receptor EP1 subtype (Homo sapiens) (UniProt P34995); assay: Prostanoid EP1 Eurofins-Panlabs radioligand binding assay; design: ligand concentration 1 nM
T1 sequence (whole entry): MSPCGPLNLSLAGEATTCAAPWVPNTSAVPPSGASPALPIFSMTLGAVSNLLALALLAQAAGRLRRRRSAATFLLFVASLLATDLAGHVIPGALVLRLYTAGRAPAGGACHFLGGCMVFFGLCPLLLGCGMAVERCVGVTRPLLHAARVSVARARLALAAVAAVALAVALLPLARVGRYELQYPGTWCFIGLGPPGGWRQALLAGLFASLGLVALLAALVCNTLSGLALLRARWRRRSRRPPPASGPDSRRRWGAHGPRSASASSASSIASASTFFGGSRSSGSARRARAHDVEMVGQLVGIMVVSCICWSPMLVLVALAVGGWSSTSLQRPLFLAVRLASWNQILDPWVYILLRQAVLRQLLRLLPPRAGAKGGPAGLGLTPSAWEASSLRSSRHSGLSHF

[4] = molecular target: Prostacyclin receptor (Homo sapiens) (UniProt P43119); assay: IP (PGI2) Eurofins-Panlabs radioligand binding assay; design: ligand concentration 6 nM
Chain of Prostacyclin receptor (Homo sapiens) (P43119 whole entry): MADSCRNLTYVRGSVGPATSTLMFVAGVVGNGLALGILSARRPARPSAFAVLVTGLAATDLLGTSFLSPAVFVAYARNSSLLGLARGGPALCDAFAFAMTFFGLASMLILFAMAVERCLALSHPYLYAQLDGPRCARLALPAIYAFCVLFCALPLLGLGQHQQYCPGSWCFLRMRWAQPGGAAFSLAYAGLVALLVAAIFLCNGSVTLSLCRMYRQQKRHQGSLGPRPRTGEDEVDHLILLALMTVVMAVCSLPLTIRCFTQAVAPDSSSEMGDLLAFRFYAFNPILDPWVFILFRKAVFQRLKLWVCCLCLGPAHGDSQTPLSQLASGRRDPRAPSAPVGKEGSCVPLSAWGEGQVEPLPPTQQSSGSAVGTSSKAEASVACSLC

[5] = molecular target: Adenosine receptor A2a (Homo sapiens) (UniProt P29274); conditions: Compound concentration 10.0 uM
Chain of Adenosine receptor A2a (Homo sapiens) (P29274 whole entry): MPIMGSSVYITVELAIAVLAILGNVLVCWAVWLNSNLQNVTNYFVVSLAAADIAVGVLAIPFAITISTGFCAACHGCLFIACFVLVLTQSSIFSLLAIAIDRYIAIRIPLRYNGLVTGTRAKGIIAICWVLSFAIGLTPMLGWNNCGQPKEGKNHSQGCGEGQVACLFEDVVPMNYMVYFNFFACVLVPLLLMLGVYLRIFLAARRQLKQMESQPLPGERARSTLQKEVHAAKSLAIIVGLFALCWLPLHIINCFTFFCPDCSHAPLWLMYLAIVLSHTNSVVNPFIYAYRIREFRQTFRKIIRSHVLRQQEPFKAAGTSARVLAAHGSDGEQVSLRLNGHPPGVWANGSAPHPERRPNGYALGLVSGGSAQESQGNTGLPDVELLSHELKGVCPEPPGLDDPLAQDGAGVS

[6] = molecular target: D(1A) dopamine receptor (Homo sapiens) (UniProt P21728); conditions: Compound concentration 10.0 uM
Chain of D(1A) dopamine receptor (Homo sapiens) (P21728 whole entry): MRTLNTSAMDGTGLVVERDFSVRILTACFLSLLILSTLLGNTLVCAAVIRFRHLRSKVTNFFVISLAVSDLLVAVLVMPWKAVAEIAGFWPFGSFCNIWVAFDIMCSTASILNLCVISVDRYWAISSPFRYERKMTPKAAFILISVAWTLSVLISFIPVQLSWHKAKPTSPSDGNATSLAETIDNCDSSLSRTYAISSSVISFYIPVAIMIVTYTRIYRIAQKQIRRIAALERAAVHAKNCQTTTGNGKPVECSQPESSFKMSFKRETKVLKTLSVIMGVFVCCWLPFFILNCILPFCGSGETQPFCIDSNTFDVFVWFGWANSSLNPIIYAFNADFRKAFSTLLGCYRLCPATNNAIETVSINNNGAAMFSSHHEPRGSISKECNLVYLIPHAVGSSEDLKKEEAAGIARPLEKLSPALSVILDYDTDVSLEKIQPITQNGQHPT

[7] = molecular target: Delta-type opioid receptor (Homo sapiens) (UniProt P41143); conditions: Compound concentration 10.0 uM
Chain of Delta-type opioid receptor (Homo sapiens) (P41143 whole entry): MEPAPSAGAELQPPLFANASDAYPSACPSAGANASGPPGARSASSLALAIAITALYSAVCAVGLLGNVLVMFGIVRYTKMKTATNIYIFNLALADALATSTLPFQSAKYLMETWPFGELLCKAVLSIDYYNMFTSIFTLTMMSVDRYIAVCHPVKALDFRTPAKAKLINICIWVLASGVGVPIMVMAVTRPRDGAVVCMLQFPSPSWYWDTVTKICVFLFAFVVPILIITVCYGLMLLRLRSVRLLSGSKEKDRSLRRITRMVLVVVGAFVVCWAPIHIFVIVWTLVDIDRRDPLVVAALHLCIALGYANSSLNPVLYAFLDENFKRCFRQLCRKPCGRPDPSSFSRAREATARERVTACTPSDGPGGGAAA

[8] = molecular target: T2, 5-hydroxytryptamine receptor 1A (Homo sapiens) (UniProt P08908); conditions: Compound concentration 10.0 uM
T2 sequence (whole entry): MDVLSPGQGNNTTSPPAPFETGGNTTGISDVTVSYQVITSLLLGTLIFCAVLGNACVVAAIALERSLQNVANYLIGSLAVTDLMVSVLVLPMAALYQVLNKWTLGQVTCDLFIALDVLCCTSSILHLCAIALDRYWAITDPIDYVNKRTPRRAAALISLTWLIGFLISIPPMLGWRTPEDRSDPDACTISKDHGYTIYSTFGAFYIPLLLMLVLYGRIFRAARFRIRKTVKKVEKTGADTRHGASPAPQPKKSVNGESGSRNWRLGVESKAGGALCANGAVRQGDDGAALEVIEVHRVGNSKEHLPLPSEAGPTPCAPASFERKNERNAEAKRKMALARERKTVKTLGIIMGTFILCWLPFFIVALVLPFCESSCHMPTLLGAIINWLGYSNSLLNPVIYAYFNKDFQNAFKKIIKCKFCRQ

[9] = molecular target: Insulin receptor (Homo sapiens) (UniProt P06213); conditions: Rattus norvegicus; Compound concentration 10.0 uM
Chain of Insulin receptor (Homo sapiens) (P06213 28-758 limits assumed): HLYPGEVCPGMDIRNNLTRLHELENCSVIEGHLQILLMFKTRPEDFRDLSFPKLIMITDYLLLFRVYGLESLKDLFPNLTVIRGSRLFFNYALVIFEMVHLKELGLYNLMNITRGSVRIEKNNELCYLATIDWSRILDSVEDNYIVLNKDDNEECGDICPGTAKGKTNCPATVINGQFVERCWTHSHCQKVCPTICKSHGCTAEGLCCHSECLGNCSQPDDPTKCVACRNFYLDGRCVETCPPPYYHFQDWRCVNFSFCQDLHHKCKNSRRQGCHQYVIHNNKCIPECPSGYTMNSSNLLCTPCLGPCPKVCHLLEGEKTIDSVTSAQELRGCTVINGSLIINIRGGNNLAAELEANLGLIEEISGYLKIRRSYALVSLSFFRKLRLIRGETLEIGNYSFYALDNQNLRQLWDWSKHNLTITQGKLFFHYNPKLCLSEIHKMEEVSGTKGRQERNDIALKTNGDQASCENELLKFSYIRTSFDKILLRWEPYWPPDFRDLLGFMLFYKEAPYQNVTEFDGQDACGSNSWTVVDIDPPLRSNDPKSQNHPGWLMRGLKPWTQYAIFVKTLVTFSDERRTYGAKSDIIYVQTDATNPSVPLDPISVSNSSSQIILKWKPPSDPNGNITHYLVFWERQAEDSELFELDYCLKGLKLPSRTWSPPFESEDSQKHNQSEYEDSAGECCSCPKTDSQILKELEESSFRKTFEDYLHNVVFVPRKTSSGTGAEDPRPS
Chain of Insulin receptor (Homo sapiens) (P06213 763-1382 limits assumed): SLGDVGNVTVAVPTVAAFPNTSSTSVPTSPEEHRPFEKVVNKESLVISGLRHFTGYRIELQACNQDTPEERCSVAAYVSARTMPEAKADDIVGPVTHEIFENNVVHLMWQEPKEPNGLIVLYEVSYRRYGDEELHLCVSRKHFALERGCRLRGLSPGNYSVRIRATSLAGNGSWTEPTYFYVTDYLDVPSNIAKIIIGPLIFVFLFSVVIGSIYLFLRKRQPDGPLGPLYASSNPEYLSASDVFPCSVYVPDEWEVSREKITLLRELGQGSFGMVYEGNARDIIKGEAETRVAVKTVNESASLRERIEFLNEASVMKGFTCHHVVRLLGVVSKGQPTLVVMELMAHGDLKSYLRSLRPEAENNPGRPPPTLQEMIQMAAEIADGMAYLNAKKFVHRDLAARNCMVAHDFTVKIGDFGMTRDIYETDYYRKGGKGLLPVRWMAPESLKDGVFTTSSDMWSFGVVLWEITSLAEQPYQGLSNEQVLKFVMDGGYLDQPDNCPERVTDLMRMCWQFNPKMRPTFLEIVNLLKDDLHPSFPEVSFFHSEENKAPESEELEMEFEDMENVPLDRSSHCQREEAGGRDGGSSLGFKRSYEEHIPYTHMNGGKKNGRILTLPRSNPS

[10] = molecular target: T3, 5-hydroxytryptamine receptor 2C (Homo sapiens) (UniProt P28335); conditions: Compound concentration 10.0 uM
T3 sequence (whole entry): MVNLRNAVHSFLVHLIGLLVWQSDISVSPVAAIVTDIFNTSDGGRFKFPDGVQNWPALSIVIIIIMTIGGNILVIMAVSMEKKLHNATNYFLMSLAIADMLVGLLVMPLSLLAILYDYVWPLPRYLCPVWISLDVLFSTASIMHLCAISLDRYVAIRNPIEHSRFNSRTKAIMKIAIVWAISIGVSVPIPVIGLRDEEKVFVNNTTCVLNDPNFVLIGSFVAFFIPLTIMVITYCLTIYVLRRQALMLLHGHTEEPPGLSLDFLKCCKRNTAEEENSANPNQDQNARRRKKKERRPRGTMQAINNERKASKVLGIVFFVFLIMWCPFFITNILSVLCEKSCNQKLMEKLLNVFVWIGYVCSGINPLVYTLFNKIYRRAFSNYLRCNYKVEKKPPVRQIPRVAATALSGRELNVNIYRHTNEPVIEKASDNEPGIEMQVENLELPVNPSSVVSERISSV

[11] = molecular target: 5-hydroxytryptamine receptor 2A (Homo sapiens) (UniProt P28223); conditions: Compound concentration 10.0 uM
Chain of 5-hydroxytryptamine receptor 2A (Homo sapiens) (P28223 whole entry): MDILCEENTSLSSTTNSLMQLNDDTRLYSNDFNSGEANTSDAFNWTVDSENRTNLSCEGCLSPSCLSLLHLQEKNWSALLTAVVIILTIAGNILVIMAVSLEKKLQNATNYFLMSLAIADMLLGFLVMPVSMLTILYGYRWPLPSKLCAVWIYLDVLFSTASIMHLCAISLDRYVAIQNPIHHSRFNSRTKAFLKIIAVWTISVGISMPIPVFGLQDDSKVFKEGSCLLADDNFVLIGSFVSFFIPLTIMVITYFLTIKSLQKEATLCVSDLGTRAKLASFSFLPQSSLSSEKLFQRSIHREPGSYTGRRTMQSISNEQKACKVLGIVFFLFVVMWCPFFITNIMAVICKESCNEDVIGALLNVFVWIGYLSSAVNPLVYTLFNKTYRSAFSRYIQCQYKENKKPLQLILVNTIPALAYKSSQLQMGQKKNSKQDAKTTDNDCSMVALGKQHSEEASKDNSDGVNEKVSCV

[12] = molecular target: Type-1 angiotensin II receptor (Homo sapiens) (UniProt P30556); conditions: Compound concentration 10.0 uM
Chain of Type-1 angiotensin II receptor (Homo sapiens) (P30556 whole entry): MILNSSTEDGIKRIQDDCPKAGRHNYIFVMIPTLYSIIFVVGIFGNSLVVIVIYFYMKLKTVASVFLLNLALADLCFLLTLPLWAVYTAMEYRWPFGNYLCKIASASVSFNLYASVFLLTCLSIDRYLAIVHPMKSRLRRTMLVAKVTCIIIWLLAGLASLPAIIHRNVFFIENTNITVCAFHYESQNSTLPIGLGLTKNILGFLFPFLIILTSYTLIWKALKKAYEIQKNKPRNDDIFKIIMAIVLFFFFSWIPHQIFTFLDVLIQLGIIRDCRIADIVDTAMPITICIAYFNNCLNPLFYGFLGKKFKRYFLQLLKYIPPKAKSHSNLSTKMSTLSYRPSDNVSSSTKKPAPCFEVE

[13] = molecular target: Motilin receptor (Homo sapiens) (UniProt O43193); conditions: Compound concentration 10.0 uM
Chain of Motilin receptor (Homo sapiens) (O43193 whole entry): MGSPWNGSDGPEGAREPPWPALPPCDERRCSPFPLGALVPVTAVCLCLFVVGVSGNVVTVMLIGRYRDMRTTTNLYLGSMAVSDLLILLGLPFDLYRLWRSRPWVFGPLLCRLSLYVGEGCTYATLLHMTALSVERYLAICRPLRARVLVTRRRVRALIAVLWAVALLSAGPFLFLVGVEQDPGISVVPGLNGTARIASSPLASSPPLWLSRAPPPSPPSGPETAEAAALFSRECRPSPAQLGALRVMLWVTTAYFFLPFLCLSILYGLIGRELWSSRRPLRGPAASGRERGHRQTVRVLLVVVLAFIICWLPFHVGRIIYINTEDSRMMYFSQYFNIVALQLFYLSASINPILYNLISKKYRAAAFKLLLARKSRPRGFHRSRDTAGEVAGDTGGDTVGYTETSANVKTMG

[14] = Compound concentration 0.001 uM

Chain of Alpha-2A adrenergic receptor (P08913 whole entry): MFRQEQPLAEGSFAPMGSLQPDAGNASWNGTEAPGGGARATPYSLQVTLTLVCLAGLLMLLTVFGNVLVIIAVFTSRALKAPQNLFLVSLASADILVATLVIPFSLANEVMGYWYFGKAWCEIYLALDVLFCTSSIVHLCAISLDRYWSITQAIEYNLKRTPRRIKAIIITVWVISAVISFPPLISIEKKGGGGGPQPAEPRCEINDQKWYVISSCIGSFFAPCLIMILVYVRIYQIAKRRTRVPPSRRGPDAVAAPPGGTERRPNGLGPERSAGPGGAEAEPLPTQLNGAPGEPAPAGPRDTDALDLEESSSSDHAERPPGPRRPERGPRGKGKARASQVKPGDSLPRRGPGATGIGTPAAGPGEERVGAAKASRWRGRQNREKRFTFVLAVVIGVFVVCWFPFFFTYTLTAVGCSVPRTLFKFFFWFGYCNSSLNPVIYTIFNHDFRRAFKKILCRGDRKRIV

Ki [1]: 8.47 µM
Structure (SMILES): Cc1c(N2CCNCC2)nc2ccc(Br)cc2c1C(=O)NC[C@H](CCC(=O)O)c1ccccc1Cl [BAY-403]

Structure (SMILES): Cc1c(N2CCCC2)nc2ccc(Br)cc2c1C(=O)NC[C@H](CCC(=O)O)c1ccccc1Cl [BAY-6672]
inhibition [2]: 10%
inhibition [3, 14]: 11%
inhibition ([3]; Compound concentration 0.01 uM): -2%
inhibition ([3]; Compound concentration 0.1 uM): 1%
inhibition ([3]; Compound concentration 1.0 uM): -5%
inhibition ([3]; Compound concentration 10.0 uM): 22%
inhibition [4, 14]: 3%
inhibition ([4]; Compound concentration 0.01 uM): -2%
inhibition ([4]; Compound concentration 0.1 uM): -3%
inhibition ([4]; Compound concentration 1.0 uM): -0%
inhibition ([4]; Compound concentration 10.0 uM): 20%
inhibition [5]: 2%
inhibition [6]: 1%
inhibition [7]: 5%
inhibition [8]: 3%
inhibition [9]: 11%
inhibition [10]: 16%
inhibition [11]: -7%
inhibition [12]: 11%
inhibition [13]: 10%
